Patent US11608328B2, “Chemical probes to identify anti-mycobacterial MmpL3 inhibitors” (Creighton University, priority 2019, dated 2023)
Converted amounts (≈) assume the structure as drawn. “And” between values parts separate entries of the source, which are not always exact repeats. Identical values can stand only once. “Also recorded” adds a separate entry of the source. Like-named read-outs stand apart in the source and are kept apart here. Marks after values point to notes of the source that are not given here.

Key:
[1] = system: Mtb; assay: MIC values against Mtb used for the PMF assays; assay type: cell-based, Mycobacterium tuberculosis; conditions: read-out: MIC values
[2] = system: MsmgΔmmpL3 expressing mmpL3tb V684W; assay type: cell-based, Mycobacterium smegmatis
[3] = system: MsmgΔmmpL3 expressing mmpL3tb S591W; assay type: cell-based, Mycobacterium smegmatis
[4] = system: MsmgΔmmpL3 expressing mmpL3tb F644C/I/L; assay type: cell-based, Mycobacterium smegmatis
[5] = system: MsmgΔmmpL3 expressing mmpL3tb V684I; assay type: cell-based, Mycobacterium smegmatis
[6] = system: MsmgΔmmpL3 expressing mmpL3tb S591G; assay type: cell-based, Mycobacterium smegmatis
[7] = system: MsmgΔmmpL3 expressing mmpL3tb S591I; assay type: cell-based, Mycobacterium smegmatis
[8] = system: MsmgΔmmpL3 expressing wild-type mmpL3tb; assay: microbe, parasite or virus in culture; assay type: cell-based
[9] = system: MsmgΔmmpL3 expressing mmpL3tb V684G; assay type: cell-based, Mycobacterium smegmatis
[10] = system: MsmgΔmmpL3 expressing mmpL3tb G253R; assay type: cell-based, Mycobacterium smegmatis
[11] = system: MsmgΔmmpL3 expressing mmpL3tb F644Y; assay type: cell-based, Mycobacterium smegmatis
[12] = system: MsmgΔmmpL3 expressing mmpL3tb LI89A; assay: microbe, parasite or virus in culture; assay type: cell-based; conditions: Table 2, mutant LI89A
[13] = system: MsmgΔmmpL3 expressing mmpL3tb G253E; assay type: cell-based, Mycobacterium smegmatis
[14] = system: MsmgΔmmpL3 expressing mmpL3tb V684A; assay type: cell-based, Mycobacterium smegmatis
[15] = system: MsmgΔmmpL3 expressing mmpL3tb G253W; assay type: cell-based, Mycobacterium smegmatis
[16] = system: MsmgΔmmpL3 expressing mmpL3tb L189R; assay type: cell-based, Mycobacterium smegmatis
[17] = system: MmpL3tb-GFP in MsmgΔmmpL3/pMVGH1-mmpL3tb-GFP cells; assay type: cell-based; conditions: 2 μM probe, 4 h at 37° C.
[18] = system: MsmgΔmmpL3 expressing mmpL3tb T311I; assay type: cell-based, Mycobacterium smegmatis
[19] = system: MsmgΔmmpL3 expressing mmpL3tb L567P; assay type: cell-based, Mycobacterium smegmatis
[20] = system: MsmgΔmmpL3 expressing mmpL3tb S288T; assay type: cell-based, Mycobacterium smegmatis
[21] = biological target: purified MmpL3tb protein (Mycobacterium tuberculosis, UniProt P9WJV5); assay: Surface Plasmon Resonance binding to immobilized MmpL3tb; conditions: for Kd: read-out: KD1
Sequence of purified MmpL3tb protein (P9WJV5 whole entry): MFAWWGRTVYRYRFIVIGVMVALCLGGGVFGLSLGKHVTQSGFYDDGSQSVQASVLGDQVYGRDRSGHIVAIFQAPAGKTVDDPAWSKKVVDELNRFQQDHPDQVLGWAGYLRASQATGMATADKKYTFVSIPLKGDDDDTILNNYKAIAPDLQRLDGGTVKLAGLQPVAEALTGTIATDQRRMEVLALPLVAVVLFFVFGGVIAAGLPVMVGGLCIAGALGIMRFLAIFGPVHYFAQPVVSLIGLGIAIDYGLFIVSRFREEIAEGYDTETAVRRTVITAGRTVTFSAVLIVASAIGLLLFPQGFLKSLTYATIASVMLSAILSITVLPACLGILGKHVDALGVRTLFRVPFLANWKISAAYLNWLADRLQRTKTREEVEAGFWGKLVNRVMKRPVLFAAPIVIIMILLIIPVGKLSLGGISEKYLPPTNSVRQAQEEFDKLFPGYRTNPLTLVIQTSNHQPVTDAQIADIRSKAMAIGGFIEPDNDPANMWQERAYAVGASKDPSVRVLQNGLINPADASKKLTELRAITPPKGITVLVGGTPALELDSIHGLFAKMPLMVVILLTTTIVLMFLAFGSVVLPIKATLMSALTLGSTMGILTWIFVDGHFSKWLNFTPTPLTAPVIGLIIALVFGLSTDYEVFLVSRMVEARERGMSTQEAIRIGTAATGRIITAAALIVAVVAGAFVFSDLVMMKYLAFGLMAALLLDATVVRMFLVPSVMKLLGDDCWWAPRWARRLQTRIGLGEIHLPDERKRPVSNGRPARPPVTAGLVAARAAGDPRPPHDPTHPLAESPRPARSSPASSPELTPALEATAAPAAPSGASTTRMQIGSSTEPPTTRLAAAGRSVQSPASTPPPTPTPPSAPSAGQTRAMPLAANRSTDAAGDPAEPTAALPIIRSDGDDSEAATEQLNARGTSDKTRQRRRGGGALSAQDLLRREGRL

[22] = system: MsmgΔmmpL3 expressing mmpL3tb F644C; assay type: cell-based, Mycobacterium smegmatis
[23] = system: MsmgΔmmpL3 expressing mmpL3tb S309C; assay type: cell-based, Mycobacterium smegmatis
[24] = system: MsmgΔmmpL3 expressing mmpL3tb Q372R; assay type: cell-based, Mycobacterium smegmatis
[25] = biological target: T1, MmpL3tb- and MmpL3tb-GFP-coated particles (Mycobacterium tuberculosis, UniProt P9WJV5); assay type: binding; conditions: 15 min at room temperature; various probe concentrations
T1 construct: His tag; made in house; host or cells: Mycobacterium smegmatis ΔmmpL3 carrying pMVGH1-mmpL3tb or pMVGH1-mmpL3tb-gfp
T1 sequence (P9WJV5 whole entry): as above

[26] = biological target: MmpL3tb (MmpL3^WT) (Mycobacterium tuberculosis, UniProt P9WJV5); assay type: binding; conditions: 50, 100 and 200 μM
Sequence of MmpL3tb (MmpL3^WT) (P9WJV5 whole entry): as above

[27] = system: Mtb H37Rv mc^26206 inverted membrane vesicles (IMVs); assay: Succinate-driven proton translocation assay (ACMA) in inverted membrane vesicles; assay type: biochemical, Mycobacterium tuberculosis; conditions: one and four times MIC against Mtb
Procedure: (§1) FIG. 19A: The reactions were initiated by adding 5 mM succinate. Upon stabilization of the signal, control compounds (INH, RIF, nigericin), the MmpL3 inhibitors or diluent (water, used for INH, or 0.2% DMSO, used for all other compounds) were added and proton translocation monitored fluorimetrically. MmpL3 inhibitors and controls were used at one and four times their MIC concentrations against Mtb. Shown are the averages and standard deviations (error bars) of triplicate measurements.
(§2) Succinate-driven proton translocation assays with the fluorescent substrate ACMA were conducted as previously described (see e.g., Li et al. J. Med. Chem. 2014, 57: 3126-3139) to determine the effect of MmpL3 inhibitors on the electrochemical proton gradient of Mtb H37Rv mc^26206 and E. coli BL21(DE3) IMVs. IMVs (0.18 mg/mL membrane proteins) were pre-incubated at 37° C. in 10 mM HEPES-KOH pH 7.5, 100 mM KCl, 5 mM MgCl2 containing 2 μM ACMA and the baseline monitored for 10 min with a fluorescence spectrophotometer (Victor X5, PerkinElmer). The reaction was then initiated by adding 5 mM succinate. Upon stabilization of the signal, control compounds (INH, RIF, nigericin), MmpL3 inhibitors, or diluent (0.2% DMSO or water) were added and proton translocation monitored fluorimetrically. The excitation and emission wavelengths were 410 nm and 480 nm, respectively.

[28] = system: E. coli BL21(DE3) IMVs; assay: as above; assay type: biochemical; conditions: 2 μg/mL
Procedure: as §1, §2

[29] = biological target: purified MmpL3-GFP (Mycobacterium tuberculosis, UniProt P9WJV5); assay type: binding
Sequence of purified MmpL3-GFP (P9WJV5 whole entry): as above

[30] = Mycolicibacterium smegmatis, Tables 1A-1B, MmpL3 WT, read-out: MIC

Compound | MIC [7] | MIC [9] | MIC [13] | MIC [14] | MIC [16] | MIC [18] | MIC [19] | MIC [8, 30] | MIC [20] | MIC [22] | MIC [23] | MIC [24] | BLI binding signal [26] | MIC ([8]; Tables 1A-1B, MmpL3 WT) | other results
N#CC(C#N)=NNc1cccc(Cl)c1 [CCCP] |  |  |  |  |  |  |  |  |  |  |  |  |  |  | MIC ([1]; against Mtb, FIG. 8 legend): 6.25 µM (≈ 1.28 µg/mL)
O=C(O)c1cn(C2CC2)c2cc(N3CCNCC3)c(F)cc2c1=O [CIP, ciprofloxacin] | 0.31 µg/mL (≈ 0.936 µM) | 0.31 µg/mL (≈ 0.936 µM) | 0.31 µg/mL (≈ 0.936 µM) | 0.31 µg/mL (≈ 0.936 µM) | 0.31 µg/mL (≈ 0.936 µM) |  |  |  |  |  |  |  |  |  | MIC [2]: 0.31 µg/mL (≈ 0.936 µM); MIC [3]: 0.31 µg/mL (≈ 0.936 µM); MIC [4]: 0.31 µg/mL (≈ 0.936 µM); MIC [5]: 0.31 µg/mL (≈ 0.936 µM); MIC [6]: 0.31 µg/mL (≈ 0.936 µM); MIC ([8]; Mycolicibacterium smegmatis): 0.31 µg/mL (≈ 0.936 µM); MIC [10]: 0.31 µg/mL (≈ 0.936 µM); MIC [11]: 0.31 µg/mL (≈ 0.936 µM); MIC ([12]; Mycolicibacterium smegmatis, read-out: MIC): 0.31 µg/mL (≈ 0.936 µM); MIC [15]: 0.31 µg/mL (≈ 0.936 µM)
CN(C)c1ccc2c(-c3ccc(C(=O)NCCCCCCn4cc(COc5ccc6[nH]c(C(=O)NC7CCCCCCC7)cc6c5)nn4)cc3C(=O)O)c3ccc(=[N+](C)C)cc-3oc2c1 [Compound 1] | >32^b μg/mL | >32^b μg/mL | >32^b μg/mL | >32^b μg/mL | >32^b μg/mL | >32^b μg/mL | 32^b μg/mL | 8 µg/mL | >32^b μg/mL | 16 µg/mL | >32^b μg/mL | >32^b μg/mL |  |  | colocalization with MmpL3tb-GFP [17]: colocalization of the probes with MmpL3tb-GFP; ka2 ([21]; SPR global fit): 0.039 1/RU*s; kd1 ([21]; SPR global fit): 0.19 s⁻¹; kd2 ([21]; SPR global fit): 0.0273 s⁻¹; ka1 ([21]; SPR global fit, HEPES-TX buffer with 5% DMSO): 2138.3 M⁻¹ s⁻¹; Model (best-fit kinetic model) ([21]; SPR sensorgrams fit globally): Two-state reaction; Kd ([21]; equilibrium dissociation constant calculated from the rate constants): 36.1 µM; SPR binding signal ([21]; in words): strong SPR signals; probe binding to coated particles (MFI) [25]: concentration-dependent binding
C[C@@H]1[C@H]2C[C@@H](C[C@H]1NC(=O)c1cc3ccccc3[nH]1)C2(C)C [North 4] | 0.64^b μg/mL | 1.28^a μg/mL | 1.28^a μg/mL | 0.32 µg/mL (≈ 1.08 µM) | 1.28^a μg/mL | 0.08 µg/mL (≈ 0.27 µM) | 0.64^b μg/mL | 0.16 µg/mL (≈ 0.54 µM) | 1.28^a μg/mL | 0.32 µg/mL (≈ 1.08 µM) | 1.28^a μg/mL | 0.32 µg/mL (≈ 1.08 µM) | consistently bound to MmpL3tb with the strongest signals |  | 
Cc1cc(C)c2cc(C(=O)NC3CCCCCCC3)[nH]c2c1 [North 21] | 0.1 µg/mL (≈ 0.335 µM) | 0.2^b μg/mL | 0.2^b μg/mL | 0.05 µg/mL (≈ 0.168 µM) | 0.2^b μg/mL | 0.05 µg/mL (≈ 0.168 µM) | 0.1 µg/mL (≈ 0.335 µM) | 0.05 µg/mL (≈ 0.168 µM) | 0.2^b μg/mL | 0.05 µg/mL (≈ 0.168 µM) | 0.2^b μg/mL | 0.05 µg/mL (≈ 0.168 µM) | consistently bound to MmpL3tb with the strongest signals |  | 
CO[C@H]1/C=C/O[C@@]2(C)Oc3c(C)c(O)c4c(O)c(c(/C=N/N5CCN(C)CC5)c(O)c4c3C2=O)NC(=O)/C(C)=C\C=C\[C@H](C)[C@H](O)[C@@H](C)[C@@H](O)[C@@H](C)[C@H](OC(C)=O)[C@@H]1C [RIF, rifampicin] |  |  |  |  |  |  |  |  |  |  |  |  |  |  | MIC ([1]; Mycobacterium tuberculosis): 0.19 µM (≈ 0.156 µg/mL)
CO[C@@H]1C[C@@H](C[C@H]2CC[C@H](C)[C@H]([C@@H](C)C(=O)O)O2)O[C@]2(O[C@](C)([C@H]3CC[C@@](C)([C@@H]4O[C@@H]([C@H]5O[C@@](O)(CO)[C@H](C)C[C@@H]5C)C[C@@H]4C)O3)C[C@H]2C)[C@@H]1C [nigericin] |  |  |  |  |  |  |  |  |  |  |  |  |  |  | effect on ΔpH of Mtb IMVs [27]: increase of fluorescence intensity indicative of ΔpH collapse; MIC ([1]; Mycobacterium tuberculosis, against Mtb, FIG. 8 legend): 4.31 µM (≈ 3.12 µg/mL); effect on ΔpH of E. coli IMVs [28]: collapse the ΔpH of E. coli IMVs
AU1235 | 3.13^a μg/mL and 2.5 μg/mL | 3.13^a μg/mL and 2.5 μg/mL | 3.13^a μg/mL and 5 μg/mL | 1.56^b μg/mL and 1.25 μg/mL | 1.56^b μg/mL and 1.25 μg/mL | 1.56^b μg/mL | 0.78 µg/mL |  | 12.5^a μg/mL | 0.78 µg/mL | 3.13^b μg/mL | 0.78 µg/mL | weak binding signal | 0.39 µg/mL | MIC [2]: 0.62 µg/mL; MIC [3]: 0.62^c μg/mL; MIC [4]: 0.62 µg/mL; effect on ΔpH of Mtb IMVs [27]: increase of fluorescence intensity indicative of ΔpH collapse; also recorded: also collapsed ΔpH in this assay when used at 4-fold MIC concentration; MIC [5]: 0.31^c μg/mL; MIC [6]: 0.31-0.62^c μg/mL; MIC ([8]; Table 2, MmpL3 WT): 0.31 µg/mL; Model (best-fit kinetic model) [21]: Two-state reaction; SPR binding signal [21]: strong SPR signals; ka1 [21]: 1858.1 M⁻¹ s⁻¹; ka2 [21]: 0.019 1/RU*s; kd1 [21]: 0.39 s⁻¹; kd2 [21]: 0.0316 s⁻¹; Kd [21]: 132 µM; MIC [10]: 0.62^c μg/mL; MIC ([1]; against Mtb, FIG. 8 legend): 0.48 µM; MIC [11]: 0.15^c μg/mL; MIC [12]: 0.62^c μg/mL; displacement of Compound 2 from purified MmpL3tb [29]: clear concentration-dependent displacement; MIC [15]: 2.5-5 ^ μg/mL
Methyl 4-(3-((3s,5s,7s)-adamantan-1-yl)ureido)-2-((1-(3-(3-(5,5-difluoro-7,9-dimethyl-5H-5λ^4,6λ^4-dipyrrolo[1,2-c:2′,1′-f][1,3,2]diazaborinin-3-yl)propanamido)propyl)-1H-1,2,3-triazol-4-yl)methoxy)benzoate [Compound 4] |  |  |  |  |  |  |  |  |  |  |  |  |  | 64 µg/mL | probe binding to coated particles (MFI) [25]: concentration-dependent binding
N-cyclooctyl-5-((1-(3-(3-(5,5-difluoro-7,9-dimethyl-5H-5λ^4,6λ^4-dipyrrolo[1,2-c:2′,1′-f][1,3,2]diazaborinin-3-yl)propanamido)propyl)-1H-1,2,3-triazol-4-yl)methoxy)-1H-indole-2-carboxamide [Compound 3] |  |  |  |  |  |  |  |  |  |  |  |  |  | 32 µg/mL | 
